# Source: US20210045385A1, “PYRIDAZINONE-SUBSTITUTED KETOXIMES AS HERBICIDES” (FMC Corporation, priority 2018, published 2021)
# What was measured:
# Type in all cases: in vivo
# [1] = tested on: blackgrass (Alopecurus myosuroides); assay: Test C postemergence, visual plant response rating
# Method in brief: (§1)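 Compounds in a non-phytotoxic solvent with surfactant were applied as a directed soil spray preemergence or to 2–10 cm, one- to two-leaf plants postemergence, in loam–sand soil. After about 10 d in a greenhouse, injury was visually rated against untreated controls on a 0–100 scale (100 = complete control).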
# [2] = tested on: wheat (Triticum aestivum); assay: Test C postemergence, visual plant response rating
# Method in brief: as §1
# [3] = tested on: galium (catchweed bedstraw, Galium aparine); assay: Test C postemergence, visual plant response rating
# Method in brief: as §1
# [4] = tested on: foxtail, giant (giant foxtail, Setaria faberi); assay: Test C postemergence, visual plant response rating
# Method in brief: as §1
# kochia (Bassia scoparia) [5] = assay: Test C postemergence, visual plant response rating
# Method in brief: as §1
# [6] = tested on: ragweed (common ragweed, Ambrosia artemisiifolia); assay: Test C postemergence, visual plant response rating
# Method in brief: as §1
# [7] = tested on: pigweed (Amaranthus retroflexus); assay: Test C postemergence, visual plant response rating
# Method in brief: as §1
# [8] = tested on: Italian ryegrass (Lolium mutiflorum); assay: Test C postemergence, visual plant response rating
# Method in brief: as §1
# [9] = tested on: barnyardgrass (Echinochloa crus-galli); assay: Test C postemergence, visual plant response rating
# Method in brief: as §1
# corn (Zea mays) = assay: Test C postemergence, visual plant response rating
# Method in brief: as §1
# [10] = tested on: foxtail, giant (giant foxtail, Setaria faberi); assay: Test C preemergence, visual plant response rating; conditions: Test C, 0 is no effect, 100 is complete control
# Method in brief: as §1
# kochia (Bassia scoparia) [11] = assay: Test C preemergence, visual plant response rating; conditions: Test C, 0 is no effect, 100 is complete control
# Method in brief: as §1
# [12] = tested on: ragweed (common ragweed, Ambrosia artemisiifolia); assay: Test C preemergence, visual plant response rating; conditions: Test C, 0 is no effect, 100 is complete control
# Method in brief: as §1
# [13] = tested on: pigweed (Amaranthus retroflexus); assay: Test C preemergence, visual plant response rating; conditions: Test C, 0 is no effect, 100 is complete control
# Method in brief: as §1
# [14] = tested on: Italian ryegrass (Lolium mutiflorum); assay: Test C preemergence, visual plant response rating; conditions: Test C, 0 is no effect, 100 is complete control
# Method in brief: as §1
# [15] = tested on: barnyardgrass (Echinochloa crus-galli); assay: Test C preemergence, visual plant response rating; conditions: Test C, 0 is no effect, 100 is complete control
# Method in brief: as §1
# [16] = tested on: sedge umbrella (small-flower umbrella sedge, Cyperus difformis); assay: Test D flooded paddy test, visual plant response rating; conditions: 250 g ai/ha, scale 0 to 100 (0 no effect, 100 complete control), 13 to 15 d
# Method in brief: (§2)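 2-leaf plants, flooded 3 cm, cpd into paddy water; greenhouse 13–15 d; visual rating vs controls, 0 = no effect, 100 = complete control; dash = no result.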
# rice (Oryza sativa) = assay: as above; conditions: 250 g ai/ha, scale 0 to 100 (0 no effect, 100 complete control), 13 to 15 d
# Method in brief: as §2
# [17] = tested on: duck salad (Heteranthera limosa); assay: as above; conditions: 250 g ai/ha, scale 0 to 100 (0 no effect, 100 complete control), 13 to 15 d
# Method in brief: as §2
# [18] = tested on: barnyardgrass (Echinochloa crus-galli); assay: as above; conditions: 250 g ai/ha, scale 0 to 100 (0 no effect, 100 complete control), 13 to 15 d
# Method in brief: as §2
# [19] = Test C, postemergence, 125 g ai/ha
Structure (SMILES),"Blackgrass plant response rating (0 to 100 scale) ([1]; Postemergence, 31 g ai/ha)","Blackgrass plant response rating (0 to 100 scale) [1, 19]","Wheat plant response rating (0 to 100 scale) ([2]; Postemergence, 31 g ai/ha)","Wheat plant response rating (0 to 100 scale) [2, 19]","Galium plant response rating (0 to 100 scale) ([3]; Postemergence, 31 g ai/ha)","Galium plant response rating (0 to 100 scale) [3, 19]","Foxtail, Giant plant response rating (0 to 100 scale) ([4]; Postemergence, 31 g ai/ha)","Foxtail, Giant plant response rating (0 to 100 scale) [4, 19]","Kochia plant response rating (0 to 100 scale) (kochia (Bassia scoparia) [5]; Postemergence, 31 g ai/ha)",Kochia plant response rating (0 to 100 scale) (kochia (Bassia scoparia) [5]; [19]),"Ragweed plant response rating (0 to 100 scale) ([6]; Postemergence, 31 g ai/ha)","Ragweed plant response rating (0 to 100 scale) [6, 19]","Pigweed plant response rating (0 to 100 scale) ([7]; Postemergence, 31 g ai/ha)","Pigweed plant response rating (0 to 100 scale) [7, 19]","Ryegrass, Italian plant response rating (0 to 100 scale) ([8]; Postemergence, 31 g ai/ha)","Ryegrass, Italian plant response rating (0 to 100 scale) [8, 19]","Barnyardgrass plant response rating (0 to 100 scale) ([9]; Postemergence, 31 g ai/ha)","Barnyardgrass plant response rating (0 to 100 scale) [9, 19]","Corn plant response rating (0 to 100 scale) (corn (Zea mays); Postemergence, 31 g ai/ha)",Corn plant response rating (0 to 100 scale) (corn (Zea mays); [19]),also measured
CO/N=C(/c1cccc(/C=C/Cl)c1)c1c(O)c(C)nn(C)c1=O [Compound 285],0,10,0,0,50,60,10,20,10,20,30,60,0,70,0,0,20,30,0,0,"Foxtail, Giant plant response rating (0 to 100 scale) ([10]; 31 g ai/ha): 0; Foxtail, Giant plant response rating (0 to 100 scale) ([10]; 125 g ai/ha): 0; Kochia plant response rating (0 to 100 scale) (kochia (Bassia scoparia) [11]; 31 g ai/ha): 0; Kochia plant response rating (0 to 100 scale) (kochia (Bassia scoparia) [11]; 125 g ai/ha): 0; Ragweed plant response rating (0 to 100 scale) ([12]; 31 g ai/ha): 0; Ragweed plant response rating (0 to 100 scale) ([12]; 125 g ai/ha): 10; Pigweed plant response rating (0 to 100 scale) ([13]; 31 g ai/ha): 0; Pigweed plant response rating (0 to 100 scale) ([13]; 125 g ai/ha): 0; Ryegrass, Italian plant response rating (0 to 100 scale) ([14]; 31 g ai/ha): 0; Ryegrass, Italian plant response rating (0 to 100 scale) ([14]; 125 g ai/ha): 10; Barnyardgrass plant response rating (0 to 100 scale) ([15]; 31 g ai/ha): 0; Barnyardgrass plant response rating (0 to 100 scale) ([15]; 125 g ai/ha): 0; Plant response rating, Sedge, Umbrella (Flood) [16]: 0; Plant response rating, Rice (Flood) (rice (Oryza sativa)): 0; Plant response rating, Ducksalad (Flood) [17]: 0; Plant response rating, Barnyardgrass (Flood) [18]: 0"
CO/N=C(\c1cccc(/C=C/Cl)c1)c1c(O)c(C)nn(C)c1=O [Compound 286],20,0,30,30,50,60,0,20,10,30,30,50,20,50,0,0,0,30,0,0,"Foxtail, Giant plant response rating (0 to 100 scale) ([10]; 31 g ai/ha): 0; Foxtail, Giant plant response rating (0 to 100 scale) ([10]; 125 g ai/ha): 50; Kochia plant response rating (0 to 100 scale) (kochia (Bassia scoparia) [11]; 31 g ai/ha): 0; Kochia plant response rating (0 to 100 scale) (kochia (Bassia scoparia) [11]; 125 g ai/ha): 0; Ragweed plant response rating (0 to 100 scale) ([12]; 31 g ai/ha): 0; Ragweed plant response rating (0 to 100 scale) ([12]; 125 g ai/ha): 20; Pigweed plant response rating (0 to 100 scale) ([13]; 31 g ai/ha): 0; Pigweed plant response rating (0 to 100 scale) ([13]; 125 g ai/ha): 10; Ryegrass, Italian plant response rating (0 to 100 scale) ([14]; 31 g ai/ha): 0; Ryegrass, Italian plant response rating (0 to 100 scale) ([14]; 125 g ai/ha): 10; Barnyardgrass plant response rating (0 to 100 scale) ([15]; 31 g ai/ha): 60; Barnyardgrass plant response rating (0 to 100 scale) ([15]; 125 g ai/ha): 90; Plant response rating, Sedge, Umbrella (Flood) [16]: 0; Plant response rating, Rice (Flood) (rice (Oryza sativa)): 0; Plant response rating, Ducksalad (Flood) [17]: 0; Plant response rating, Barnyardgrass (Flood) [18]: 0"
CO/N=C(/c1cccc(/C=C\Cl)c1)c1c(O)c(C)nn(C)c1=O [Compound 287],10,30,0,0,50,70,10,70,0,10,20,50,10,20,20,80,0,60,0,10,"Foxtail, Giant plant response rating (0 to 100 scale) ([10]; 31 g ai/ha): 10; Foxtail, Giant plant response rating (0 to 100 scale) ([10]; 125 g ai/ha): 40; Kochia plant response rating (0 to 100 scale) (kochia (Bassia scoparia) [11]; 31 g ai/ha): 0; Kochia plant response rating (0 to 100 scale) (kochia (Bassia scoparia) [11]; 125 g ai/ha): 0; Ragweed plant response rating (0 to 100 scale) ([12]; 31 g ai/ha): 0; Ragweed plant response rating (0 to 100 scale) ([12]; 125 g ai/ha): 20; Pigweed plant response rating (0 to 100 scale) ([13]; 31 g ai/ha): 0; Pigweed plant response rating (0 to 100 scale) ([13]; 125 g ai/ha): 0; Ryegrass, Italian plant response rating (0 to 100 scale) ([14]; 31 g ai/ha): 50; Ryegrass, Italian plant response rating (0 to 100 scale) ([14]; 125 g ai/ha): 90; Barnyardgrass plant response rating (0 to 100 scale) ([15]; 31 g ai/ha): 40; Barnyardgrass plant response rating (0 to 100 scale) ([15]; 125 g ai/ha): 90; Plant response rating, Sedge, Umbrella (Flood) [16]: 0; Plant response rating, Rice (Flood) (rice (Oryza sativa)): 0; Plant response rating, Ducksalad (Flood) [17]: 0; Plant response rating, Barnyardgrass (Flood) [18]: 0"
CO/N=C(\c1cccc(/C=C\Cl)c1)c1c(O)c(C)nn(C)c1=O [Compound 288],40,40,0,0,60,80,80,90,10,30,30,60,0,30,40,100,70,100,10,20,"Foxtail, Giant plant response rating (0 to 100 scale) ([10]; 31 g ai/ha): 40; Foxtail, Giant plant response rating (0 to 100 scale) ([10]; 125 g ai/ha): 100; Kochia plant response rating (0 to 100 scale) (kochia (Bassia scoparia) [11]; 31 g ai/ha): 0; Kochia plant response rating (0 to 100 scale) (kochia (Bassia scoparia) [11]; 125 g ai/ha): 30; Ragweed plant response rating (0 to 100 scale) ([12]; 31 g ai/ha): 10; Ragweed plant response rating (0 to 100 scale) ([12]; 125 g ai/ha): 20; Pigweed plant response rating (0 to 100 scale) ([13]; 31 g ai/ha): 0; Pigweed plant response rating (0 to 100 scale) ([13]; 125 g ai/ha): 0; Ryegrass, Italian plant response rating (0 to 100 scale) ([14]; 31 g ai/ha): 70; Ryegrass, Italian plant response rating (0 to 100 scale) ([14]; 125 g ai/ha): 100; Barnyardgrass plant response rating (0 to 100 scale) ([15]; 31 g ai/ha): 70; Barnyardgrass plant response rating (0 to 100 scale) ([15]; 125 g ai/ha): 100; Plant response rating, Sedge, Umbrella (Flood) [16]: 0; Plant response rating, Rice (Flood) (rice (Oryza sativa)): 0; Plant response rating, Ducksalad (Flood) [17]: 0; Plant response rating, Barnyardgrass (Flood) [18]: 0"
